Measurements from patent publication US20090104235A1, “Method for Producing of a Preparation of a Solid Dmso-Containing Silicone Oil Emulsion for the Binding of Reactive Oxygen Compounds in Human and Animal Bodies” (priority 2005, published 2009).

Legend:
[1] = Case report: morbus Bechterev patient with chronic pain, daily suppository application; assay type: in vivo, human
From the text: […]: morbus Bechterev for over 10 years. Treatment of chronic pain with Celebrex.

[2] = DMSO application quantity needed for the same effect; comparison with pure DMSO; assay type: in vivo, human; settings: dose of pure DMSO, without silicone emulsion
Protocol: With standard preparations for the treatment of chronic diseases among humans, DMSO can be prescribed in a dose of up to 1 g/kg of body weight. A toxic effect only occurs among humans when over 1 g/kg DMSO is supplied (N. M. Luerry et al. Drug. Intell. Clin. Pharm. 18, 591 [1984]). Due to the silicone emulsion according to the invention, the same effect is achieved among humans with an application quantity of DMSO of 1 mg/kg of body weight. With the silicone emulsion according to the invention, the quantity of DMSO to be applied is therefore reduced to 1/1000th of the application quantity used to date.

[3] = among humans; N. M. Luerry et al. 1984; cited from earlier work

Cc1ccc(-c2cc(C(F)(F)F)nn2-c2ccc(S(N)(=O)=O)cc2)cc1 [Celebrex]
side effects ([1]; morbus Bechterev patient): clearly cause difficulty to the patient
influence on disease progression ([1]; treatment of chronic pain, morbus Bechterev for over 10 years): can also not be significantly influenced

C[S+](C)[O-] [DMSO, dimethylsulphoxide]
pain-relieving and inflammation-restricting effect [2]: does not lead to the high pain-relieving and inflammation-restricting effect
dose at which a toxic effect occurs [3]: over 1 g/kg
